# Source: patent US20190093170A1, “USE OF TRANSLATIONAL PROFILING TO IDENTIFY TARGET MOLECULES FOR THERAPEUTIC TREATMENT” (THE REGENTS OF THE UNIVERSITY OF CALIFORNIA, priority 2013, published 2019)
# Tested on: PC3 human prostate cancer cells
# Experiment: RNA-seq mRNA abundance (part of ribosome profiling experiment);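 further: average poly(A) RNA-seq read density per codon over the coding sequence, excluding 15 initial and 5 final codons, mapped to hg19 transcripts, taken as mRNA abundance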
# Type: cell-based
# Settings: for PP242 mRNA: 3-hour treatment with PP242 (2.5 μM) in PC3 cells
# Protocol: Cells were subsequently treated with cycloheximide (100 μg ml^−1; Sigma) and detergent lysis was performed in the dish. The lysate was treated with DNase and clarified, and a sample was taken for RNA-seq analysis. Lysates were subjected to ribosome footprinting by nuclease treatment. Ribosome-protected fragments were purified, and deep sequencing libraries were generated from these fragments, as well as from poly(A) mRNA purified from non-nuclease-treated lysates. These libraries were analyzed by sequencing on an Illumina GAII.
# Ribosome footprint and RNA-seq sequencing reads were aligned against a library of transcripts from the UCSC Known Genes database GRCh37/hg19. The first 25 nucleotides of each read were aligned using Bowtie and this initial alignment was then extended to encompass the full fragment-derived portion of the sequencing read while excluding the linker sequence. Read density profiles were then constructed for the canonical transcript of each gene, using only reads with 0 or 1 total mismatches between the read sequence and the reference sequence, comprised of the transcript fragment followed by the linker sequence. Footprint reads were assigned to an A site nucleotide at position +15 to +17 of the alignment, based on the total fragment length; mRNA reads were assigned to the first nucleotide of the alignment. The average read density per codon was then computed for the coding sequence of each transcript, excluding the first 15 and last 5 codons, which can display atypical ribosome accumulation.
# Average read density was used as a measure of mRNA abundance (RNA-seq reads) and of protein synthesis (ribosome profiling reads). For most analyses, genes were filtered to require at least 256 reads in the relevant RNA-seq samples. Translational efficiency was computed as the ratio of ribosome footprint read density to RNA-seq read density, scaled to normalize the translational efficiency of the median gene to 1.0 after excluding regulated genes (log 2 fold-change+1.5 after normalizing for the all-gene median). Changes in protein synthesis, mRNA abundance and translational efficiency were similarly computed as the ratio of read densities between different samples, normalized to give the median gene a ratio of 1.0. This normalization corrects for differences in the absolute number of sequencing reads obtained for different libraries.
smiles,measurement,setting,value
CC(C)n1nc(-c2cc3cc(O)ccc3[nH]2)c2c(N)ncnc21 [PP242],PP242 mRNA,gene ACD,0.20
same,mRNA,gene ACTG1,0.28
same,mRNA,gene AGRN,0.50
same,mRNA,gene ALKBH7,0.51
same,mRNA,gene AP2A1,0.42
same,mRNA,gene ARD1A,0.03
same,mRNA,gene ATP5G2,0.17
same,PP242 mRNA,gene C17orf28,0.21
same,mRNA,gene C21orf66,−0.31
same,PP242 mRNA,gene CCNA1,−0.33
same,mRNA,gene CCNI,0.24
same,mRNA,gene CD44,0.43
same,mRNA,gene CIRBP,0.54
same,mRNA,gene CLPTM1,0.41
same,mRNA,gene COL6A2,0.57
same,mRNA,gene CRTAP,0.33
same,PP242 mRNA,gene DDX51,0.17
same,PP242 mRNA,gene DGCR2,0.05
same,mRNA,gene ECSIT,0.26
same,PP242 mRNA,gene EEF1A1,0.29
same,mRNA,gene EEF1A2,0.40
same,mRNA,gene EEF1D,0.35
same,mRNA,gene EEF1G,0.15
same,mRNA,gene EEF2,0.76
same,mRNA,gene EIF3H,0.09
same,mRNA,gene EIF3L,0.21
same,mRNA,gene EIF4B,0.61
same,mRNA,gene EVPL,0.38
same,mRNA,gene FAM83H,0.33
same,mRNA,gene FAM128B,0.43
same,mRNA,gene FASN,0.30
same,mRNA,gene GLTSCR2,0.70
same,mRNA,gene GNB2L1,0.27
same,PP242 mRNA,gene GTPBP3,0.15
same,mRNA,gene HNRNPA1,0.27
same,mRNA,gene HSPA8,−0.40
same,mRNA,gene IMPDH2,0.21
same,mRNA,gene LAMA5,0.40
same,mRNA,gene LMF2,0.62
same,PP242 mRNA,gene MAPK6,0.10
same,PP242 mRNA,gene MAPKAPK2,−0.22
same,mRNA,gene MTA1,0.21
same,mRNA,gene NCLN,0.29
same,PP242 mRNA,gene NFATC21P,0.08
same,PP242 mRNA,gene NR2F1,0.87
same,mRNA,gene PABPC1,0.16
same,mRNA,gene PABPC4,0.40
same,mRNA,gene PACS1,0.45
same,mRNA,gene PFDN5,0.04
same,mRNA,gene PGLS,0.21
same,mRNA,gene PGM1,0.23
same,mRNA,gene PNKP,0.33
same,PP242 mRNA,gene PRKD3,−0.46
same,mRNA,gene PTGES2,0.17
same,mRNA,gene RABGGTB,0.20
same,PP242 mRNA,gene RBPJ,0.17
same,mRNA,gene RPL3,0.22
same,mRNA,gene RPL4,0.10
same,mRNA,gene RPL7,0.01
same,mRNA,gene RPL7A,0.15
same,mRNA,gene RPL9,−0.08
same,mRNA,gene RPL10,0.25
same,mRNA,gene RPL10A,0.14
same,mRNA,gene RPL11,0.14
same,mRNA,gene RPL12,0.12
same,mRNA,gene RPL13,0.26
same,mRNA,gene RPL13A,0.30
same,mRNA,gene RPL15,0.19
same,mRNA,gene RPL18A,0.23
same,mRNA,gene RPL19,0.11
same,mRNA,gene RPL21,−0.04
same,mRNA,gene RPL22,0.00
same,mRNA,gene RPL24,0.00
same,mRNA,gene RPL26,0.02
same,mRNA,gene RPL27,−0.13
same,mRNA,gene RPL27A,0.07
same,mRNA,gene RPL28,0.22
same,PP242 mRNA,gene RPL28,0.55
same,mRNA,gene RPL31,0.05
same,mRNA,gene RPL32,0.11
same,mRNA,gene RPL34,0.04
same,mRNA,gene RPL36A,−0.01
same,mRNA,gene RPL37A,0.01
same,mRNA,gene RPL39,−0.15
same,PP242 mRNA,gene RPL39,−0.42
same,mRNA,gene RPL41,−0.01
same,mRNA,gene RPLP0,0.12
same,mRNA,gene RPLP1,0.12
same,mRNA,gene RPLP2,0.14
same,mRNA,gene RPS2,0.20
same,mRNA,gene RPS3,0.24
same,mRNA,gene RPS3A,−0.06
same,mRNA,gene RPS4X,0.12
same,mRNA,gene RPS5,0.23
same,mRNA,gene RPS7,−0.04
same,mRNA,gene RPS9,0.34
same,mRNA,gene RPS12,0.04
same,mRNA,gene RPS13,−0.08
same,mRNA,gene RPS14,0.16
same,mRNA,gene RPS15,0.21
same,mRNA,gene RPS15A,0.07
same,mRNA,gene RPS19,0.23
same,mRNA,gene RPS20,−0.01
same,PP242 mRNA,gene RPS20,−0.10
same,mRNA,gene RPS21,0.09
same,mRNA,gene RPS25,−0.04
same,mRNA,gene RPS27,0.07
same,PP242 mRNA,gene RPS27,0.06
same,mRNA,gene RPS27A,−0.04
same,mRNA,gene RPS28,0.28
same,PP242 mRNA,gene SDCCAG10,−0.37
same,mRNA,gene SLC19A1,0.10
same,mRNA,gene TKT,0.33
same,mRNA,gene TPT1,0.01
same,mRNA,gene TSC2,0.21
same,mRNA,gene UBA52,0.18
same,PP242 mRNA,gene UBTD2,0.25
same,PP242 mRNA,gene UCHL5,−0.51
same,PP242 mRNA,gene VHL,0.43
same,mRNA,gene VIM,0.67
same,mRNA,gene YB1,0.24
